Laboratory results taken from patent publication US9623016B2, “Antibacterial compounds” (Emergent Virology LLC, priority 2013, dated 2017).
In brackets after ≈: the same amount, converted by molar mass.

How the values were obtained:
P. aeruginosa 4990 = test: Disc diffusion; type: cell-based
Method: (§1) Different concentrations of antimicrobial discs were made by incorporation of defined amount of the compound and were stored in a refrigerator (4° C.). Plates were swabbed in three directions with test bacteria to give uniform growth with 0.5 McFarland inocula. Antimicrobial discs were applied to the plates as soon as possible, but no longer than 15 minutes after inoculation. The plates were incubated at 37° C. for 18 hours. The growth inhibition zones around the disc were measured.

P. aeruginosa 4858 [1] = test: Disc diffusion; type: cell-based
Method: as §1

[2] = tested on: E. coli In-house WT (SLR-IBT); test: Disc diffusion; type: cell-based
Method: as §1

S. aureus USA300 = test: Disc diffusion; type: cell-based
Method: as §1

B. subtilus ATCC 6051 = test: Disc diffusion; type: cell-based
Method: as §1

S. pneumoniae ATCC 6301 = test: Disc diffusion; type: cell-based
Method: as §1

S. aureus 8325-4 = test: Disc diffusion; type: cell-based
Method: as §1

S. aureus Col (MRSA) = test: Disc diffusion; type: cell-based
Method: as §1

E. coli K12 = test: Disc diffusion; type: cell-based
Method: as §1

P. aeruginosa 4961 = test: Disc diffusion; type: cell-based
Method: as §1

P. aeruginosa 4858 [3] = test: Minimum Bactericidal Concentration (MBC); type: cell-based
Method: (§2) MBC is the lowest concentration of compound required to kill an organism. […] In the case of small colony variants, growth might not occur earlier than 48 hours.

S. aureus (Col) = test: Minimum Bactericidal Concentration (MBC); type: cell-based
Method: as §2

S. aureus (USA300) [4] = test: Minimum Bactericidal Concentration (MBC); type: cell-based
Method: as §2

S. aureus (8324-5) = test: Minimum Bactericidal Concentration (MBC); type: cell-based
Method: as §2

S. aureus = test: Minimum Bactericidal Concentration (MBC); type: cell-based; details: UV-5; S. Aureus NCTC8325-4
Method: as §2

B. subtilis = test: Minimum Bactericidal Concentration (MBC); type: cell-based
Method: as §2

[5] = tested on: Staphylococcus aureus USA300
Method: The challenge inoculum included 6.13e4 cfu USA300+3% Hog mucin which causes bacteremia/sepsis within 24-72 h. […] The mice used were 6-8 week old female BALB/c mice in groups of 10. One group of 5 mice was also included to examine the potential toxicity of 3% hog mucin. Endpoint was day 10 post infection, death, or euthanasia Animals displaying severe illness as determined by >30% weight loss, extreme lethargy, or paralysis were euthanized. Observation included daily weight, health checks, and temperatures starting with the initiation of dosing until 10 days post challenge.

S. aureus (USA300) [6] = test: Minimum Inhibitory Concentration (MIC); type: cell-based; details: for visible growth: Table 3; for growth (OD600): Table 4
Method: The MIC assay is a technique used to determine the lowest concentration of a particular antibiotic needed to inhibit visible growth of bacteria. In this method, two fold serial dilutions of the compound were prepared in broth media. An inoculum of overnight bacterial cultures will be prepared in the same broth medium. The serial dilution tubes will be inoculated with 0.025 ml of undiluted over-night culture (1:100), a 1×10-2 dilution (1:10,000), or a 1×10-4 dilution (1:1,000,000) of bacterial suspension. Results were recorded after 24 hour incubation at 35° C. without shaking by measuring OD600. The MIC is determined by the lowest concentration of compound where no growth is visible.

[N-]=[N+]=Nc1ccc(NCCCCCCN2C[C@H](O)[C@@H](O)[C@H](O)[C@H]2CO)c([N+](=O)[O-])c1 [UV-5, N—(N-{4′-azido-2′-nitrophenyl}-6-aminohexyl)deoxynojirimycin]
Inhibition zone diameter (P. aeruginosa 4990; UV-5 160 ug disc): 6 mm | Inhibition zone diameter (P. aeruginosa 4858 [1]; UV-5 160 ug disc): 6 mm | Inhibition zone diameter ([2]; UV-5 160 ug disc): 15 mm | Inhibition zone diameter (S. aureus USA300; UV-5 160 ug disc): 16 mm | Inhibition zone diameter (B. subtilus ATCC 6051; UV-5 160 ug disc): 18 mm | Inhibition zone diameter (S. pneumoniae ATCC 6301; UV-5 160 ug disc): 17 mm | Inhibition zone diameter (S. aureus 8325-4; UV-5 160 ug disc): 16 mm | Inhibition zone diameter (S. aureus Col (MRSA); UV-5 160 ug disc): 16 mm | Inhibition zone diameter (E. coli K12; UV-5 160 ug disc): 12 mm | Inhibition zone diameter (P. aeruginosa 4961; UV-5 160 ug disc): 14 mm | MBC (P. aeruginosa 4858 [3]; UV-5): 5000 µg/mL (≈ 11.8 mM) | growth after re-inoculation on BHI agar (P. aeruginosa 4858 [3]; UV-5 0.16 mg/ml): + | growth after re-inoculation on BHI agar (P. aeruginosa 4858 [3]; UV-5 0.3 mg/ml): + | growth after re-inoculation on BHI agar (P. aeruginosa 4858 [3]; UV-5 0.62 mg/ml): + | growth after re-inoculation on BHI agar (P. aeruginosa 4858 [3]; UV-5 2.5 mg/ml): + | growth after re-inoculation on BHI agar (P. aeruginosa 4858 [3]; UV-5 5 mg/ml): − | growth after re-inoculation on BHI agar (P. aeruginosa 4858 [3]; UV-5 10 mg/ml): − | growth after re-inoculation on BHI agar (P. aeruginosa 4858 [3]; UV-5 20 mg/ml): − | growth after re-inoculation on BHI agar (S. aureus (Col); UV-5 0.16 mg/ml): + | growth after re-inoculation on BHI agar (S. aureus (Col); UV-5 0.3 mg/ml): + | growth after re-inoculation on BHI agar (S. aureus (Col); UV-5 0.62 mg/ml): + | growth after re-inoculation on BHI agar (S. aureus (Col); UV-5 10 mg/ml): − | growth after re-inoculation on BHI agar (S. aureus (Col); UV-5 20 mg/ml): − | MBC (S. aureus (Col); UV-5, S. aureus COL MRSA): 2500 µg/mL (≈ 5.89 mM) | MBC (S. aureus (USA300) [4]; UV-5): 20000 µg/mL (≈ 47.1 mM) | growth after re-inoculation on BHI agar (S. aureus (USA300) [4]; UV-5 0.16 mg/ml): + | growth after re-inoculation on BHI agar (S. aureus (USA300) [4]; UV-5 0.3 mg/ml): + | growth after re-inoculation on BHI agar (S. aureus (USA300) [4]; UV-5 0.62 mg/ml): + | growth after re-inoculation on BHI agar (S. aureus (USA300) [4]; UV-5 2.5 mg/ml): + | growth after re-inoculation on BHI agar (S. aureus (USA300) [4]; UV-5 5 mg/ml): + | growth after re-inoculation on BHI agar (S. aureus (USA300) [4]; UV-5 10 mg/ml): + | growth after re-inoculation on BHI agar (S. aureus (USA300) [4]; UV-5 20 mg/ml): − | growth after re-inoculation on BHI agar (S. aureus (8324-5); UV-5 0.16 mg/ml): + | growth after re-inoculation on BHI agar (S. aureus (8324-5); UV-5 0.3 mg/ml): + | growth after re-inoculation on BHI agar (S. aureus (8324-5); UV-5 0.62 mg/ml): + | growth after re-inoculation on BHI agar (S. aureus (8324-5); UV-5 2.5 mg/ml): + | growth after re-inoculation on BHI agar (S. aureus (8324-5); UV-5 5 mg/ml): + | growth after re-inoculation on BHI agar (S. aureus (8324-5); UV-5 10 mg/ml): − | growth after re-inoculation on BHI agar (S. aureus (8324-5); UV-5 20 mg/ml): − | MBC (S. aureus): 10000 µg/mL (≈ 23.6 mM) | MBC (B. subtilis; UV-5): 2500 µg/mL (≈ 5.89 mM) | growth after re-inoculation on BHI agar (B. subtilis; UV-5 0.16 mg/ml): + | growth after re-inoculation on BHI agar (B. subtilis; UV-5 0.3 mg/ml): + | growth after re-inoculation on BHI agar (B. subtilis; UV-5 0.62 mg/ml): + | growth after re-inoculation on BHI agar (B. subtilis; UV-5 10 mg/ml): − | growth after re-inoculation on BHI agar (B. subtilis; UV-5 20 mg/ml): − | significance of survival increase vs water ([5]; 100 mg/kg UV-5 BID): not a statistically significant increase in survival | survival ([5]; 100 mg/kg UV-5 orally BID for 10 days, from 3 days before IP challenge, water control 30%): 70% | toxicity at the dose/regimen used ([5]; 100 mg/kg UV-5 orally BID, mice): some toxicity was observed

CC[C@H]1OC(=O)[C@H](C)[C@@H](O[C@H]2C[C@@](C)(OC)[C@@H](O)[C@H](C)O2)[C@H](C)[C@@H](O[C@@H]2O[C@H](C)C[C@H](N(C)C)[C@H]2O)[C@](C)(O)C[C@@H](C)C(=O)[C@H](C)[C@@H](O)[C@]1(C)O [Erythromycin, reference compound]
zone of inhibition at 10 µg/disc (P. aeruginosa 4990; Pseudomonas aeruginosa, 4990, read-out: Inhibition zone diameter): 20 mm | zone of inhibition at 10 µg/disc (P. aeruginosa 4858 [1]; Pseudomonas aeruginosa, 4858, read-out: Inhibition zone diameter): 8 mm | zone of inhibition at 10 µg/disc ([2]; Escherichia coli, read-out: Inhibition zone diameter): 15 mm | zone of inhibition at 10 µg/disc (S. aureus USA300; Staphylococcus aureus, USA300, read-out: Inhibition zone diameter): 15 mm | zone of inhibition at 10 µg/disc (B. subtilus ATCC 6051; read-out: Inhibition zone diameter): 35 mm | zone of inhibition at 10 µg/disc (S. pneumoniae ATCC 6301; Streptococcus pneumoniae, ATCC6301, read-out: Inhibition zone diameter): 38 mm | zone of inhibition at 10 µg/disc (S. aureus 8325-4; Staphylococcus aureus, 83254, read-out: Inhibition zone diameter): 35 mm | zone of inhibition at 10 µg/disc (S. aureus Col (MRSA); Staphylococcus aureus, MRSA, read-out: Inhibition zone diameter): 42 mm | zone of inhibition at 10 µg/disc (E. coli K12; Escherichia coli, K12, read-out: Inhibition zone diameter): 20 mm | zone of inhibition at 10 µg/disc (P. aeruginosa 4961; Pseudomonas aeruginosa, 4961, read-out: Inhibition zone diameter): 18 mm | visible growth (S. aureus (USA300) [6]; Erythromycin 0.20 ug/ml): + | growth (OD600) (S. aureus (USA300) [6]; Erythromycin 0.20 ug/ml): + (+ OD600 <0.05) | visible growth (S. aureus (USA300) [6]; Erythromycin 0.39 ug/ml): + | growth (OD600) (S. aureus (USA300) [6]; Erythromycin 0.39 ug/ml): + (+ OD600 <0.05) | visible growth (S. aureus (USA300) [6]; Erythromycin 0.78 ug/ml): + | growth (OD600) (S. aureus (USA300) [6]; Erythromycin 0.78 ug/ml): + (+ OD600 <0.05) | visible growth (S. aureus (USA300) [6]; Erythromycin 1.56 ug/ml): + | growth (OD600) (S. aureus (USA300) [6]; Erythromycin 1.56 ug/ml): + (+ OD600 <0.05) | visible growth (S. aureus (USA300) [6]; Erythromycin 3.13 ug/ml): + | growth (OD600) (S. aureus (USA300) [6]; Erythromycin 3.13 ug/ml): + (+ OD600 <0.05) | visible growth (S. aureus (USA300) [6]; Erythromycin 6.25 ug/ml): + | growth (OD600) (S. aureus (USA300) [6]; Erythromycin 6.25 ug/ml): + (+ OD600 <0.05) | visible growth (S. aureus (USA300) [6]; Erythromycin 25.00 ug/ml): − | growth (OD600) (S. aureus (USA300) [6]; Erythromycin 25.00 ug/ml): − (− OD600 >0.05) | visible growth (S. aureus (USA300) [6]; Erythromycin 50 ug/ml): − | growth (OD600) (S. aureus (USA300) [6]; Erythromycin 50 ug/ml): − (− OD600 >0.05) | visible growth (S. aureus (USA300) [6]; Erythromycin 100 ug/ml): − | growth (OD600) (S. aureus (USA300) [6]; Erythromycin 100 ug/ml): − (− OD600 >0.05)
